According to US20230174473A1, “ANTIMICROBIAL AND ANTIVIRAL SULFUR CONTAINING GLYCEROL MONOESTER DERIVATIVES” (priority 2020, published 2023):
≈ marks a conversion by molar mass, not a printed value.

Experiments:
[1] = tested on: Staphylococcus aureus strain MN8; assay: MIC and MBC assay, broth dilution with plate counts; type: cell-based; conditions: for minimum bactericidal concentration (MBC) / minimum inhibitory concentration (MIC): Staphylococcus Aureus MN8 strain, 24-hour incubation, Todd Hewitt broth, aerobic 37° C.; for activity compared with GML (log CFU/mL, FIGS. 1A and 1B): staphylococcus aureus MN8 cultured with various concentrations
Method: For this experiment, all cultures were aerobic at 37° C. with 150 RPM gyrotary shaking. Stationary phase with this microbe is 1.0x1010 colony-forming units (CFUs)/ml. The next morning the culture was diluted to approximately 5x10^6/ml in 1 ml amounts of Todd Hewitt broth in 5 ml polystyrene test tubes. The tubes contained serial two-fold dilutions of glycerol monolaurate, SGML, or […]. The control tubes contained no GML or SGML and […] compounds. The compounds were tested in triplicate. […] The control tube contained the highest volume of ethanol that was used to deliver the compounds to each 1 ml test tube. […] Once plated, the plates were incubated aerobically for 24 hours at 37° C. Counts were made to determine CFUs/ml. The CFUs/ml were log-transformed and mean ± SD were determined. Using the standard MIC and MBC assay above with staphylococcus aureus strain […] and […] were tested with GML.

TSST-1 = type: cell-based, Staphylococcus aureus
Escherichia coli = assay: MIC and MBC test with E. coli; type: cell-based; conditions: for effectiveness compared with GML (FIG. 3): E. coli MIC and MBC test; for Minimum Inhibitory Concentration / Mininum Bactericidal Concentration: E. coli laboratory strain from a patient with urinary tract infection, same conditions as S. aureus MN8
Method: The conditions for this test were the same as in the above example with S. aureus MN8. The E. coli strain was a laboratory strain from a patient with a confirmed urinary tract infection. The strain is maintained in the laboratory at -80° C.

[2] = tested on: Lipase (glycerol ester hydrolase); assay: Lipase (glycerol ester hydrolase) assay, esterase resistance; type: biochemical, Staphylococcus aureus; conditions: 500 ug/ml compound; lipase 25 ug/ml; 24 hours at 37° C.
Method: Protocol for Lipase (glycerol ester hydrolase) assay: • 1. Two separate samples of lipase at 25 ug/ml were prepared. • 2. Microscope slides were made up with 500 ug/ml of GML, SGML, or S2ML compounds. • These slides contained 0.85% agarose (Difco) heat solubilized into PBS (0.005 M NaPO4 pH 7.2; 0.15MNaC1). • 3. The mixtures contained the compounds above their solubility limits, so they were vortexed, and 4.5 ml of the cloudy mixtures was spread onto microscope slides. • 4. The slides remained at room temperature for 1 hour to allow the agarose to solidify. • 5. The, 4 mm wells were punched into the agarose, twice per slide. • 6. 20 ul of the Lipase was added to each well. • 7. The slides were incubated for 24 hours at 37° C. • 8. The diameter squared was determined for each. This allows determination of hydrolysis of compound. • GML: 15 mm; 15 mm diameters (diameters squared=225 mm) • SGML: 12 mm; 13 mm diameters (diameters squared=144 mm and 169 mm for an average of 156.5 mm) • S2GML: 0 mm; 0 mm diameters (diameters squared=0) • 10. Diameter squared is used to the determination would be a straight line with a standard curve. • Set GML at 100% • 11. SGML is 70% as much as GML • 12. S2GML is 0% of GML

Bacillus subtilis = assay: MIC/MBC at 24 hours; type: cell-based; conditions: Time 0 1.1E+07 CFU/ml, 200 RPM shaking at 37° C.
Method: Bacillus subtilis, an aerobic spore-former, was incubated with 200 RPM shaking at 37° C. The strain was a recent clinical isolate at the University of Iowa, and proves to develop resistance to standard […] agents.
(§1) All solutions used in the MBC and MIC studies were prepared from a stock of 100 mg/ml of either GML, SGML or S2GML in absolute ethanol.

[3] = tested on: Streptococcus pyogenes (Group A streptococcus) 594; assay: MIC/MBC at 24 hours; type: cell-based; conditions: Streptococcus pyogenes GAS 594, Time 0 2.7E+06 CFU/ml, stationary at 37° C. in 5% CO2
Method: Streptococcus pyogenes (Group A streptococcus) 594 is a standard scarlet fever strain that has been extensively published on. The strain was incubated stationary at 37° C. in 5% CO2.
as §1

Candida auris = assay: MIC/MBC at 24 hours; type: cell-based; conditions: Time 0 4.5E+05 CFU/ml
Method: Candida auris is a newly emerging yeast (fungus) that is causing skin and bloodstream infections in humans. It easily becomes resistant to anti-fungal agents, making development of novel therapeutics a necessity. This organism is related to Candida albicans and other Candida species. The MIC and MBC in the above table show very good activity of both the SGML and S2GML versus this organism.
as §1

| Compound | minimum bactericidal concentration (MBC) [1] | minimum inhibitory concentration (MIC) [1] | activity compared with GML (log CFU/mL, FIGS. 1A and 1B) [1] | inhibition of TSST-1 (TSST-1) | effectiveness compared with GML (FIG. 3) (Escherichia coli) | Minimum Inhibitory Concentration (Escherichia coli) | Mininum Bactericidal Concentration (Escherichia coli) | hydrolysis as % of GML (diameter squared, GML set at 100%) [2] | MIC/MBC (Bacillus subtilis) | MIC/MBC [3] | MIC/MBC (Candida auris) |
| --- | --- | --- | --- | --- | --- | --- | --- | --- | --- | --- | --- |
| CCCCCCCCCCCC(=S)SCC(O)CO (stereo not shown) [Example S2GML, glycerol dithionomonolaureate] | 63.5 µg/mL (≈ 207 µM) | 31.125 µg/mL (≈ 102 µM) | clearly has more activity | < 4 µg/mL | performed similarly to GML | 500 µg/mL | 500 µg/mL | 0% | <1.0 µg/mL | <0.1 µg/mL | 1.0 µg/mL (≈ 3.26 µM) |
| CCCCCCCCCCCC(=S)OCC(O)CO (stereo not shown) [SGML, glycerol thionomonolaureate] | 125 µg/mL (≈ 430 µM) | 125 µg/mL (≈ 430 µM) | more active than GML | 8 µg/mL | more effective than GML | 250 µg/mL | 250 µg/mL | 70% | 10 µg/mL (≈ 34.4 µM) | 0.1 µg/mL (≈ 0.344 µM) | 10 µg/mL (≈ 34.4 µM) |
